Results as given in ChEMBL document CHEMBL5375992, “Design and Development of IKZF2 and CK1α Dual Degraders” (J Med Chem, 2023).
≈ marks a conversion by molar mass, not a printed value. Calls of active or inactive are those of the source. No cut-off for these calls is given here.

What was measured:
OCI-Ly3 [1] = experiment: Cytotoxicity against human OCILY3 cells incubated for 5 days by MTT assay; format: functional, cell-based; conditions: OCI-Ly3, 120 h
[2] = target: T1, Protein cereblon/Zinc finger protein Helios (Homo sapiens) (UniProt Q96SW2+Q9UKS7); experiment: Protac activity at CRBN/IKZF2 in human A2780 cells assessed as relative ratio at 100 nM incubated for 24 hrs by Western blotting analysis relative to DMSO; format: cell-based
T1 sequence (Q96SW2 whole entry, looked up): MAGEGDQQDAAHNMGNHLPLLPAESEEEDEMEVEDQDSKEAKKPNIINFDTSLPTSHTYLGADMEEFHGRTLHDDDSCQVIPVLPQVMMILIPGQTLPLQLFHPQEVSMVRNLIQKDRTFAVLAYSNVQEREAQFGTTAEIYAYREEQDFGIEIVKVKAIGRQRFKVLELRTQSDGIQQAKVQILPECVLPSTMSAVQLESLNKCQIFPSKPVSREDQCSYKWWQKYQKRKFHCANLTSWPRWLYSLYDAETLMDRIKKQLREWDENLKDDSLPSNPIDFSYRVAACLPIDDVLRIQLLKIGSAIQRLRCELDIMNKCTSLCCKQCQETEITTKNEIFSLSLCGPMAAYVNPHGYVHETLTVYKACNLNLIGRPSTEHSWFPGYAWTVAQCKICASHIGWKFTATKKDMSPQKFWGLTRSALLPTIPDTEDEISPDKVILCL
T1 sequence (Q9UKS7 whole entry, looked up): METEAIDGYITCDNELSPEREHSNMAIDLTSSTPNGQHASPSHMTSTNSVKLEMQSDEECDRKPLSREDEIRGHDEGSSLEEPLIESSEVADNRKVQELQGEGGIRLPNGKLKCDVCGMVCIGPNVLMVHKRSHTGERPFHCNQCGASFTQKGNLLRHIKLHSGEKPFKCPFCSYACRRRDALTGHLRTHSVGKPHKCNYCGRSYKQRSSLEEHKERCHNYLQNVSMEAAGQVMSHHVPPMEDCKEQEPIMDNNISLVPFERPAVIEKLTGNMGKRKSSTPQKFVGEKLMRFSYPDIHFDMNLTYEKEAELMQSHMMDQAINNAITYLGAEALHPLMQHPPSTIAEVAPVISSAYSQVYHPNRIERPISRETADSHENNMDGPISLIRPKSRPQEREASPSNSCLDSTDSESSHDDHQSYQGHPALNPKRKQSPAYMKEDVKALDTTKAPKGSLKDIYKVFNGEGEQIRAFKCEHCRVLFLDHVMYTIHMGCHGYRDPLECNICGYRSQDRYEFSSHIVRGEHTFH

[3] = target: T2, Cereblon/Casein kinase I alpha (Homo sapiens) (UniProt P48729+Q96SW2); experiment: Protac activity at CRBN/CK1alpha in human MOLM-13 cells at 50 nM incubated for 2 hrs by proteomic analysis; format: cell-based
T2 sequence (P48729 2-337 limits assumed): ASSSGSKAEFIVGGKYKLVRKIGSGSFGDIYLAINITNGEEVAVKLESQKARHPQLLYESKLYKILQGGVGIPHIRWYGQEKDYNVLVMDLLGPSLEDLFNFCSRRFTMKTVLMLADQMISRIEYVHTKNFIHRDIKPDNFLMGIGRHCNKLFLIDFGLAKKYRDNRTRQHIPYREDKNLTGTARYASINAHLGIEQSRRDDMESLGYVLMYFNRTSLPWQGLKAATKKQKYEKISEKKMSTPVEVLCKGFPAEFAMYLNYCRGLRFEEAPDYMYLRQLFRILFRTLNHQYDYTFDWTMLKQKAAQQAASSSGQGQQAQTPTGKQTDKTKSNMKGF
T2 sequence (Q96SW2 whole entry partner): as the sequence (Q96SW2 whole entry, looked up) above

[4] = target: T2, Cereblon/Casein kinase I alpha (Homo sapiens); experiment: Protac activity at CRBN/CK1alpha in human A2780 cells assessed as relative ratio at 10 uM incubated for 24 hrs by Western blotting analysis relative to DMSO; format: cell-based
[5] = target: T3, Protein cereblon/Eukaryotic peptide chain release factor GTP-binding subunit ERF3A (Homo sapiens) (UniProt Q96SW2+P15170); experiment: Protac activity at CRBN/GSPT1 in human A2780 cells assessed as relative ratio at 1 nM incubated for 24 hrs by Western blotting analysis relative to DMSO; format: cell-based
T3 sequence (P15170 whole entry, looked up): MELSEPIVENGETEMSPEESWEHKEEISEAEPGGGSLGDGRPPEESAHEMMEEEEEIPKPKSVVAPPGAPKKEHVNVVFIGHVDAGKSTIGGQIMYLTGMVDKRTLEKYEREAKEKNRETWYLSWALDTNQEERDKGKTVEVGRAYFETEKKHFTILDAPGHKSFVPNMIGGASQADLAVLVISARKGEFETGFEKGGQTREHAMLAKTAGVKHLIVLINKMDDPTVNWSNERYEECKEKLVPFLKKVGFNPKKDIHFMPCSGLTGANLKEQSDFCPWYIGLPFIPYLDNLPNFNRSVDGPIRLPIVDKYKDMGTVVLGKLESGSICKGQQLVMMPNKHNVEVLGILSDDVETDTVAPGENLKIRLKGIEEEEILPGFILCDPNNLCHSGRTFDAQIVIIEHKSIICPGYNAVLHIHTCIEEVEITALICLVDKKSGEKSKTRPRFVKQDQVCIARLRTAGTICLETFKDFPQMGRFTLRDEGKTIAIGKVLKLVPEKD
T3 sequence (Q96SW2 whole entry, looked up): as the sequence (Q96SW2 whole entry, looked up) above

[6] = target: T3, Protein cereblon/Eukaryotic peptide chain release factor GTP-binding subunit ERF3A (Homo sapiens); experiment: Protac activity at CRBN/GSPT1 in human NCI-H1048 cells at 10 to 100 nM incubated for 24 hrs by Western blotting analysis; format: cell-based; conditions: dose 10-100 nM
[7] = target: Cereblon/Ikaros (Homo sapiens) (UniProt Q96SW2+Q13422); experiment: Protac activity at CRBN/IKZF1 (unknown origin) transfected in HEK293T cells at 100 nM incubated for 24 hrs by flow cytometry analysis relative to control; format: cell-based
A2780 [8] = experiment: Upregulation of Bax protein expression in human A2780 cells at […] incubated for 24 hrs by Western blot analysis; format: functional, cell-based
[9] = target: T3, Protein cereblon/Eukaryotic peptide chain release factor GTP-binding subunit ERF3A (Homo sapiens); experiment: Protac activity at CRBN/GSPT1 in human A2780 cells assessed as relative ratio at 100 nM incubated for 24 hrs by Western blotting analysis relative to DMSO; format: cell-based
OCI-Ly3 [10] = experiment: Upregulation of Bax transcript level in human OCILY3 cells at 1 uM incubated for 24 hrs by RT-qPCR analysis; format: functional, cell-based
[11] = target: T3, Protein cereblon/Eukaryotic peptide chain release factor GTP-binding subunit ERF3A (Homo sapiens); experiment: Protac activity at CRBN/GSPT1 in human OCILY3 cells assessed as relative ratio at 10 nM incubated for 24 hrs by Western blotting analysis relative to DMSO; format: cell-based
[12] = target: T1, Protein cereblon/Zinc finger protein Helios (Homo sapiens); experiment: Protac activity at CRBN/IKZF2 in human A2780 cells assessed as relative ratio at 10 uM incubated for 24 hrs by Western blotting analysis relative to DMSO; format: cell-based
[13] = target: T3, Protein cereblon/Eukaryotic peptide chain release factor GTP-binding subunit ERF3A (Homo sapiens); experiment: Protac activity at CRBN/GSPT1 in human A2780 cells assessed as relative ratio at 10 uM incubated for 24 hrs by Western blotting analysis relative to DMSO; format: cell-based
[14] = target: T1, Protein cereblon/Zinc finger protein Helios (Homo sapiens); experiment: Protac activity at CRBN/IKZF2 in human A2780 cells assessed as relative ratio at 1 uM incubated for 24 hrs by Western blotting analysis relative to DMSO; format: cell-based
[15] = target: T3, Protein cereblon/Eukaryotic peptide chain release factor GTP-binding subunit ERF3A (Homo sapiens); experiment: Protac activity at CRBN/GSPT1 in human A2780 cells assessed as relative ratio at 1 uM incubated for 24 hrs by Western blotting analysis relative to DMSO; format: cell-based
[16] = target: T1, Protein cereblon/Zinc finger protein Helios (Homo sapiens); experiment: Protac activity at CRBN/IKZF2 in human A2780 cells assessed as relative ratio at 10 nM incubated for 24 hrs by Western blotting analysis relative to DMSO; format: cell-based
[17] = target: T1, Protein cereblon/Zinc finger protein Helios (Homo sapiens); experiment: Protac activity at CRBN/IKZF2 in human A2780 cells assessed as relative ratio at 1 nM incubated for 24 hrs by Western blotting analysis relative to DMSO; format: cell-based
[18] = target: T3, Protein cereblon/Eukaryotic peptide chain release factor GTP-binding subunit ERF3A (Homo sapiens); experiment: Protac activity at CRBN/GSPT1 in human A2780 cells assessed as relative ratio at 10 nM incubated for 24 hrs by Western blotting analysis relative to DMSO; format: cell-based
[19] = target: T3, Protein cereblon/Eukaryotic peptide chain release factor GTP-binding subunit ERF3A (Homo sapiens); experiment: Protac activity at CRBN/GSPT1 in human OCILY3 cells assessed as relative ratio at 1 nM incubated for 24 hrs by Western blotting analysis relative to DMSO; format: cell-based
A2780 [20] = experiment: Cytotoxicity against human A2780 cells incubated for 5 days by MTT assay; format: functional, cell-based; conditions: A2780, 120 h
[21] = target: T2, Cereblon/Casein kinase I alpha (Homo sapiens); experiment: Protac activity at CRBN/CK1alpha in human OCILY3 cells assessed as relative ratio at 10 nM incubated for 24 hrs by Western blotting analysis relative to DMSO; format: cell-based
A2780 [22] = experiment: Upregulation of p21 transcript level in human A2780 cells at 1 uM incubated for 24 hrs by RT-qPCR analysis; format: functional, cell-based
OCI-Ly3 [23] = experiment: Upregulation of Bax protein expression in human OCILY3 cells at […] incubated for 24 hrs by Western blot analysis; format: functional, cell-based
[24] = target: T3, Protein cereblon/Eukaryotic peptide chain release factor GTP-binding subunit ERF3A (Homo sapiens); experiment: Protac activity at CRBN/GSPT1 in human OCILY3 cells assessed as relative ratio at 10 uM incubated for 24 hrs by Western blotting analysis relative to DMSO; format: cell-based
[25] = target: T2, Cereblon/Casein kinase I alpha (Homo sapiens); experiment: Protac activity at CRBN/CK1alpha in human OCILY3 cells assessed as relative ratio at 1 nM incubated for 24 hrs by Western blotting analysis relative to DMSO; format: cell-based
OCI-Ly3 [26] = experiment: Upregulation of p53 protein expression in human OCILY3 cells at […] incubated for 24 hrs by Western blot analysis; format: functional, cell-based
[27] = target: T2, Cereblon/Casein kinase I alpha (Homo sapiens); experiment: Protac activity at CRBN/CK1alpha in human A2780 cells assessed as relative ratio at 100 nM incubated for 24 hrs by Western blotting analysis relative to DMSO; format: cell-based
[28] = target: T2, Cereblon/Casein kinase I alpha (Homo sapiens); experiment: Protac activity at CRBN/CK1alpha in human OCILY3 cells assessed as relative ratio at 10 uM incubated for 24 hrs by Western blotting analysis relative to DMSO; format: cell-based
A2780 [29] = experiment: Upregulation of MDM2 protein expression in human A2780 cells at […] incubated for 24 hrs by Western blot analysis; format: functional, cell-based
[30] = target: T2, Cereblon/Casein kinase I alpha (Homo sapiens); experiment: Protac activity at CRBN/CK1alpha in human OCILY3 cells assessed as relative ratio at 1 uM incubated for 24 hrs by Western blotting analysis relative to DMSO; format: cell-based
A2780 [31] = experiment: Upregulation of p53 protein expression in human A2780 cells at […] incubated for 24 hrs by Western blot analysis; format: functional, cell-based
[32] = Solubility of compound in DMSO; format: physicochemical; conditions: DMSO; read-out: solubility
[33] = target: T2, Cereblon/Casein kinase I alpha (Homo sapiens); experiment: Protac activity at CRBN/CK1alpha in human A2780 cells assessed as relative ratio at 10 nM incubated for 24 hrs by Western blotting analysis relative to DMSO; format: cell-based
[34] = target: T3, Protein cereblon/Eukaryotic peptide chain release factor GTP-binding subunit ERF3A (Homo sapiens); experiment: Protac activity at CRBN/GSPT1 in human OCILY3 cells assessed as relative ratio at 100 nM incubated for 24 hrs by Western blotting analysis relative to DMSO; format: cell-based
[35] = target: T2, Cereblon/Casein kinase I alpha (Homo sapiens); experiment: Protac activity at CRBN/CK1alpha (unknown origin) transfected in HEK293T cells at 100 nM incubated for 24 hrs by flow cytometry analysis relative to control; format: cell-based
[36] = target: T2, Cereblon/Casein kinase I alpha (Homo sapiens); experiment: Protac activity at CRBN/CK1alpha in human OCILY3 cells assessed as relative ratio at 100 nM incubated for 24 hrs by Western blotting analysis relative to DMSO; format: cell-based
[37] = target: T2, Cereblon/Casein kinase I alpha (Homo sapiens); experiment: Protac activity at CRBN/CK1alpha in human A2780 cells assessed as relative ratio at 1 uM incubated for 24 hrs by Western blotting analysis relative to DMSO; format: cell-based
OCI-Ly3 [38] = experiment: Upregulation of p21 transcript level in human OCILY3 cells at 1 uM incubated for 24 hrs by RT-qPCR analysis; format: functional, cell-based
A2780 [39] = experiment: Upregulation of Bax transcript level in human A2780 cells at 1 uM incubated for 24 hrs by RT-qPCR analysis; format: functional, cell-based
OCI-Ly3 [40] = experiment: Upregulation of p21 protein expression in human OCILY3 cells at […] incubated for 24 hrs by Western blot analysis; format: functional, cell-based
[41] = target: T3, Protein cereblon/Eukaryotic peptide chain release factor GTP-binding subunit ERF3A (Homo sapiens); experiment: Protac activity at CRBN/GSPT1 in human OCILY3 cells assessed as relative ratio at 1 uM incubated for 24 hrs by Western blotting analysis relative to DMSO; format: cell-based
[42] = target: T3, Protein cereblon/Eukaryotic peptide chain release factor GTP-binding subunit ERF3A (Homo sapiens); experiment: Protac activity at CRBN/GSPT1 (unknown origin) transfected in HEK293T cells at 100 nM incubated for 24 hrs by flow cytometry analysis relative to control; format: cell-based
OCI-Ly3 [43] = experiment: Upregulation of MDM2 protein expression in human OCILY3 cells at […] incubated for 24 hrs by Western blot analysis; format: functional, cell-based
A2780 [44] = experiment: Upregulation of p21 protein expression in human A2780 cells at […] incubated for 24 hrs by Western blot analysis; format: functional, cell-based
[45] = target: T2, Cereblon/Casein kinase I alpha (Homo sapiens); experiment: Protac activity at CRBN/CK1alpha in human A2780 cells assessed as relative ratio at 1 nM incubated for 24 hrs by Western blotting analysis relative to DMSO; format: cell-based
[46] = target: T1, Protein cereblon/Zinc finger protein Helios (Homo sapiens); experiment: Protac activity at CRBN/IKZF2 (unknown origin) transfected in HEK293T cells at 100 nM incubated for 24 hrs by flow cytometry analysis relative to control; format: cell-based

With `COc1cccc2c1OCC(C(=O)Nc1ccc3c(c1)CN(C1CCC(=O)NC1=O)C3=O)=C2` (stereo unspecified) the EC50 (OCI-Ly3 [1]) was 14 nM, the Ratio [2] was 0.24 and the Activity [3] was “Active”. For the same compound, the Ratio [4] was 0.17, the Ratio [5] was 0.96 and the Activity [6] was “inactive”. The Activity [7] was 11%, the Activity (A2780 [8]) was “Active” and the Ratio [9] was 0.9. For the same compound, the Activity (OCI-Ly3 [10]) was “Active”, the Ratio [11] was 0.67 and the Ratio [12] was 0.06. The Ratio [13] was 1, the Ratio [14] was 0.08 and the Ratio [15] was 1. The Ratio [16] was 0.77, the Ratio [17] was 1 and the Ratio [18] was 0.9. For the same compound, the Ratio [19] was 0.83, the EC50 (A2780 [20]) was 27 nM and the Ratio [21] was 0.28. For the same compound, the Activity (A2780 [22]) was “Active”, the Activity (OCI-Ly3 [23]) was “Active” and the Ratio [24] was 0.8. For the same compound, the Ratio [25] was 0.63, the Activity (OCI-Ly3 [26]) was “Active” and the Ratio [27] was 0.18. For the same compound, the Ratio [28] was 0.27, the Activity (A2780 [29]) was “Active” and the Ratio [30] was 0.26. The Activity (A2780 [31]) was “Active”, the solubility [32] was 50 mM (≈ 22.4 mg/mL) and the Ratio [33] was 0.22. For the same compound, the Ratio [34] was 0.65, the Activity [35] was 80% and the Ratio [36] was 0.25. For the same compound, the Ratio [37] was 0.17, the Activity (OCI-Ly3 [38]) was “Active” and the Activity (A2780 [39]) was “Active”. The Activity (OCI-Ly3 [40]) was “Active”, the Ratio [41] was 0.73 and the Activity [42] was 4%. The Activity (OCI-Ly3 [43]) was “Active”, the Activity (A2780 [44]) was “Active” and the Ratio [45] was 0.5. The Activity [46] was 82%.
